Measured values published in article PMC6226472, “Cardol triene inhibits dengue infectivity by targeting kl loops and preventing envelope fusion” (Scientific Reports, 2018).

How the values were obtained:
DENV2 = assay: Time of drug addition study (TOA); type: cell-based, Dengue virus; settings: 10 and 20 µM, added 0-48 h after infection, 72 h incubation
Procedure: Time of drug addition assay is a standard method to primarily identify the possible target of a newly characterized compound[20]. Based on the previous efficacy results, cardol triene was chosen as a representative of all CNSL-derived phenolic lipids. Cardol triene was prepared in DMSO and added to the final concentrations of 10 µM and 20 µM to DENV2 infected Vero cells (M.O.I. of 0.1). The compound was added to the cells at different time-points. DMSO alone was added to the infected cells as a mock treatment. After 72 h incubation, cell lysates and supernatants were collected for analysis of intracellular RNAs and infectious virions by RT-qPCR and plaque titration, respectively.
Vero (5 × 10^4) cells were seeded into each well of 24-well plates. cells were infected with DENV2 (M.O.I. of 0.1) after an overnight incubation[44],[45]. Cardol triene (C15:3) at 10 and 20 µM were added to the cells during (0 h) and after infections at early time-points as follows; 1, 2, 4, 6, 8, 10, 12, 24, 36, and 48 h. Moreover, late time-points after were also accessed at 12, 14, 16, 18, 20, 22, 24, 36, 48, 60, and 72 h after infections. DMSO alone was added to the infected cells at respective time-points as a mock treatment referring to 100% infectivities. […] Data were calculated, assembled, and reported as percent intracellular RNAs and infectious virions under the drug treatment at designated time-points.

ZIKV (sv0010/15) = assay: Efficacy (EC50) in infected Vero cells; type: cell-based, Zika virus
[1] = system: BHK-21/DENV2 replicon cells; assay: Replicon inhibition study, RT-qPCR of DENV2 NS1; type: cell-based, Dengue virus; settings: 72 h
Procedure: We analyzed the replication inhibition using BHK-21/DENV2 replicon cells stably expressed the non-structural proteins. Cardol triene at 10 µM and 20 µM were added to the replicon cells for 72 h and the replication inhibition was accessed by RT-qPCR of DENV2 NS1. Ribavirin, a known inhibitor of flaviviral replication, was used as a positive inhibition control. […] Replicon cell viability under cardol triene treatment was also analyzed using an MTS assay. […] Therefore, we concluded that cardol triene inhibited DENV RNA replicon replication, potentially in dose-dependent manner.
BHK-21 (5 × 10^4) cells expressing DENV-2 replicon (BHK-21/DENV2)[44] were seeded as previously described. Cardol triene at 10 µM and 20 µM, DMSO, and ribavirin (TargetMol, USA) were added to the replicon cells and incubated at 37 °C for 3 days. Cells lysates were collected and viral RNA was quantified by RT-qPCR as previously described. Data were reported as percent inhibition compared with ribavirin. Three biological replicates were performed and results were means and SEM of all replicates.

DENV1 (16007) = assay: Efficacy (EC50) in infected Vero cells; type: cell-based; settings: Dengue virus
DENV2 NGC = assay: Efficacy study (EC50) in DENV2 infected Vero cells, plaque titration; type: cell-based, Dengue virus
Procedure: Next, we studied the efficacies (EC50) of the phenolic lipid homologues against DENV2 infectivity in Vero cells. Briefly, compounds at 10 different concentrations were added to DENV2-infected Vero cells (M.O.I. of 0.1) during and post infection and the viral inhibition was determined by plaque titration. […] Noted that anacardic acids were major components of CNSL extracts and all homologues were purified directly from CNSL itself.
Next, each homologue was analyzed for effective concentration (EC50). Vero (5 × 10^4) cells were seeded, and infected with DENV2 (M.O.I. of 0.1) as previously described. Phenolic lipid mixtures and homologues were serially diluted in DMSO to the final concentrations as follows; 0, 0.5, 1, 1.5, 2, 2.5, 5, 7.5, 10, 25, and 50 µM. DMSO at the concentration of 1% was used as a mock treatment referring to 100% infection. Infected cells were treated with the designated compounds during and post infection. Supernatants were collected at 3 days after infection for analysis of virion production by plaque titration. Non-linear regression analysis was used to determine the effective concentrations. […] The therapeutic index (TI) was a ration of CC50/EC50 of the compound.

Compound: C=CC/C=C/C/C=C/CCCCCCCc1cc(O)cc(O)c1 [Cardol triene, 5-[8(Z), 11(Z), 14-pentadecatrienyl]resorcinol]
- intracellular RNAs and infectious virions by time of drug addition (DENV2): decreased immediately at 1 h and persisted until 48 h after infections
- Zika virus inhibition (ZIKV (sv0010/15)): did not inhibit
- DENV2 RNA inhibition ([1]; 10 µM): 76.60 ± 7.59%
- DENV2 RNA inhibition ([1]; 20 µM): 89.44 ± 4.02%
- EC50 (DENV1 (16007)): 5.35 ± 1.16 µM
- EC50 (DENV2 NGC; Dengue virus, 72 h, DENV2 NGC (M.O.I. of 0.1) infected Vero cells, plaque titration, 3 days, read-out: EC50): 7.13 ± 0.72 µM
- TI (therapeutic index, CC50/EC50) (DENV2 NGC; Vero CC50 / DENV2 EC50): 29.07
